The results in this text go back to patent US20140243335A1, “SUBSTITUTED HYDOXAMIC ACIDS AND USES THEREOF” (Millennium Pharmaceuticals, Inc., priority 2010, published 2014).

The structures appear in SMILES notation. Counter-ions that a name gives are not always drawn.

In the assay the target is T1, purified human HDAC6 (Homo sapiens, UniProt Q9UBN7).
T1 construct: purchased BPS Bioscience 5006
T1 sequence (Q9UBN7 1-1215): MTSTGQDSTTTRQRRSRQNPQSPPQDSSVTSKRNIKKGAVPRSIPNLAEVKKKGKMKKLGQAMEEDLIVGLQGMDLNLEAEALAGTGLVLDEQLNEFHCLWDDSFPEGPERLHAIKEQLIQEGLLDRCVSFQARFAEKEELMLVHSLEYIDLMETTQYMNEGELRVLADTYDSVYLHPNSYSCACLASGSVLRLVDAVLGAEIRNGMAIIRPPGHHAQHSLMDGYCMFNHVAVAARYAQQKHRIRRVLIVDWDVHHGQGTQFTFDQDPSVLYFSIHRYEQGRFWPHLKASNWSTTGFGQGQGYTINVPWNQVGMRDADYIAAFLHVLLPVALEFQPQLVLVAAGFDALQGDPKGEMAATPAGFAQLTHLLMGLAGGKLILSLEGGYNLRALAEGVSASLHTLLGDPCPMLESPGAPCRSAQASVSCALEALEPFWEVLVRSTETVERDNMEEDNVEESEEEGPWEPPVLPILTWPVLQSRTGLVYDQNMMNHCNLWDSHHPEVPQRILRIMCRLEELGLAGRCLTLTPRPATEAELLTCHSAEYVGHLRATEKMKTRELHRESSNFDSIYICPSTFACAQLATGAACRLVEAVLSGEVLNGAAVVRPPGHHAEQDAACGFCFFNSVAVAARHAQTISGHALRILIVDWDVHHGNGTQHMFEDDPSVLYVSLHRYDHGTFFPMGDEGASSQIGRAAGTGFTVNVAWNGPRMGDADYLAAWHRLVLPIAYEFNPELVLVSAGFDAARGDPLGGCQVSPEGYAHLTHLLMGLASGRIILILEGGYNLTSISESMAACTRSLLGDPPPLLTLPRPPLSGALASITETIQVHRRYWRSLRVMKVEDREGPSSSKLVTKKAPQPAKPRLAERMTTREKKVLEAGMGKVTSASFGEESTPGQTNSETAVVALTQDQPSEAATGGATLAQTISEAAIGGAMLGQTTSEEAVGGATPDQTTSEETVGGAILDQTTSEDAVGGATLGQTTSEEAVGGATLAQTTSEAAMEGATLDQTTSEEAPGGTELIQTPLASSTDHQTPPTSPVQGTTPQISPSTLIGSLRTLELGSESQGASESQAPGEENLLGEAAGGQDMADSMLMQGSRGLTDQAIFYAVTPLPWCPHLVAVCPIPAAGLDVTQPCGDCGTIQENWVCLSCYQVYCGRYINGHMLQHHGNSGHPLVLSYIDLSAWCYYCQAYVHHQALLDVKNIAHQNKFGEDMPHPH
Kind of assay: HDAC6 Enzyme Assay. The class given is biochemical. The note with it: HDAC6 inhibition at a compound concentration of 0.412 μM; read-out: Percent Inhibition at 0.412 μM. As to the method:
To measure the inhibition of HDAC6 activity, purified human HDAC6 (BPS Bioscience; Cat. No. 5006) is incubated with substrate Ac-Arg-Gly-Lys(Ac)-AMC peptide (Bachem Biosciences; Cat. No. I-1925) for 1 hour at 30° C. in the presence of test compounds or vehicle DMSO control. The reaction is stopped with the HDAC inhibitor trichostatin A (Sigma; Cat. No. T8552) and the amount of Arg-Gly-Lys-AMC generated is quantitated by digestion with trypsin (Sigma; Cat. No. T1426) and subsequent measurement of the amount of AMC released using a fluorescent plate reader (Pherastar; BMG Technologies) set at Ex 340 nm and Em 460 nm. Concentration response curves are generated by calculating the fluorescence increase in test compound-treated samples relative to DMSO-treated controls, and enzyme inhibition (IC50) values are determined from those curves.
As a reminder, the inhibition is the percentage by which the read-out fell short of the control. As to `CC(C)(Oc1ccccc1Cl)C(=O)N[C@H]1CCCc2cc(C(=O)NO)ccc21` [Compound I-69, (5S)-5-{[2-(2-chlorophenoxy)-2-methylpropanoyl]amino}-N-hydroxy-5,6,7,8-tetrahydronaphthalene-2-carboxamide], the inhibition at 0.412 µM was found to be 44%.

For the compound `Cc1nc(C(F)(F)F)c(C(=O)NC2CCCc3cc(C(=O)NO)ccc32)s1` (centres unmarked) [Compound I-7, N-{6-[(hydroxyamino)carbonyl]-1,2,3,4-tetrahydronaphthalen-1-yl}-2-methyl-4-(trifluoromethyl)-1,3-thiazole-5-carboxamide], the inhibition at 0.412 µM amounted to 22%.

Take `O=C(NO)c1ccc2c(c1)CC(Oc1ccccc1)CC2` (centres unmarked) [Compound I-87, N-hydroxy-7-phenoxy-5,6,7,8-tetrahydronaphthalene-2-carboxamide]: the inhibition at 0.412 µM came out at 92%.

As for `O=C(NO)c1ccc2c(c1)CCC(Oc1ccnc(C(=O)NC3CCNCC3)c1)C2` (centres unmarked) [Compound I-220, 4-({6-[(hydroxyamino)carbonyl]-1,2,3,4-tetrahydronaphthalen-2-yl}oxy)-N-piperidin-4-ylpyridine-2-carboxamide], the inhibition at 0.412 µM worked out at 92%.

`O=C(NO)c1ccc2c(c1)CCCC2NC(=O)C1(c2ccccc2)CCCC1` (centres unmarked) [Compound I-46, N-hydroxy-5-{[(1-phenylcyclopentyl)carbonyl]amino}-5,6,7,8-tetrahydronaphthalene-2-carboxamide]: the inhibition at 0.412 µM came out at 22%.

For `O=C(NO)c1ccc2c(c1)CC(C1CCNCC1)CC2` (centres unmarked) [Compound I-212, N-hydroxy-7-piperidin-4-yl-5,6,7,8-tetrahydronaphthalene-2-carboxamide. HCl], the inhibition at 0.412 µM was 72%.

On to `O=C(NO)c1ccc2c(c1)CC(NCc1ccncc1)CC2` (centres unmarked) [Compound I-85, N-hydroxy-7-[(pyridin-4-ylmethyl)amino]-5,6,7,8-tetrahydronaphthalene-2-carboxamide], for which the inhibition at 0.412 µM stood at 75%.

With `Cn1c(C(=O)N[C@@H]2CCCc3cc(C(=O)NO)ccc32)cc2ccccc21` [Compound I-64, N-{(1R)-6-[(hydroxyamino)carbonyl]-1,2,3,4-tetrahydronaphthalen-1-yl}-1-methyl-1H-indole-2-carboxamide], the inhibition at 0.412 µM worked out at 18%.

For `O=C(NO)c1ccc2c(c1)C1CCC2N1C(=O)C12CC3CC(CC(C3)C1)C2` (centres unmarked) [Compound I-205, 9-(1-adamantylcarbonyl)-N-hydroxy-1,2,3,4-tetrahydro-1,4-epiminonaphthalene-6-carboxamide], the inhibition at 0.412 µM was 17%.

On to `CC1(C(=O)Nc2cc(OC3CCc4cc(C(=O)NO)ccc4C3)ccn2)CCNCC1` (centres unmarked) [Compound I-148, N-[4-({6-[(hydroxyamino)carbonyl]-1,2,3,4-tetrahydronaphthalen-2-yl}oxy)pyridin-2-yl]-4-methylpiperidine-4-carboxamide], for which the inhibition at 0.412 µM amounted to 93%.

On to `O=C(NO)c1ccc2c(c1)CCCC2NC(=O)c1cc2cc(Cl)ccc2o1` (centres unmarked) [Compound I-40, 5-chloro-N-{6-[(hydroxyamino)carbonyl]-1,2,3,4-tetrahydronaphthalen-1-yl}-1-benzofuran-2-carboxamide], for which the inhibition at 0.412 µM worked out at 48%.

Take `O=C(NO)c1ccc2c(c1)C1CCC2N1C(=O)c1ccccn1` (centres unmarked) [Compound I-210, N-hydroxy-9-(pyridin-2-ylcarbonyl)-1,2,3,4-tetrahydro-1,4-epiminonaphthalene-6-carboxamide]: the inhibition at 0.412 µM came out at 28%.

On to `O=C(NO)c1ccc2c(c1)CCC(Oc1ccccc1)C2` (centres unmarked) [Compound I-229, N-hydroxy-6-phenoxy-5,6,7,8-tetrahydronaphthalene-2-carboxamide], for which the inhibition at 0.412 µM stood at 92%.

Take `O=C(NO)c1ccc2c(c1)CC(c1ccc(N3CCNCC3)nc1)CC2` (centres unmarked) [Compound I-190, N-hydroxy-7-(6-piperazin-1-ylpyridin-3-yl)-5,6,7,8-tetrahydronaphthalene-2-carboxamide]: the inhibition at 0.412 µM stood at 90%.
